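In this assay, cells in 96-well plates receive the compound at five concentrations for 48 hours. Endpoints are linearly interpolated between the surrounding concentrations. The concentration for 50% growth inhibition is given as GI50. Definition used: TGI = concentration required for complete inhibition of growth.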

For the assay, the system named is MDA-MB-468 breast. Briefly: NCI tumour cell line growth inhibition, 48 h.
`O=C(CC1(O)C(=O)N(Cc2ccccc2)c2ccc(Br)cc21)c1ccc(C(=O)NCC2CCC3(CC2)OOC2(CCCCC2)OO3)cc1` (centres undefined): the GI50 is 2.01 µM and the TGI was determined as 6.72 µM.
Taken in the same sequence, the figures for `O=c1c2c3c(sc2n2c(CCl)nnc2n1Cc1ccccc1)CCCC3` were 1.77 µM and 3.72 µM.
Consider `CC(=O)Nc1nc(C)c(-c2csc(Nc3ccccc3)n2)s1`, for which the GI50 is 1.74 µM and the TGI was found to be 9.01 µM.
Turning to `Cc1ccc2nc3ccccc3c(NCc3ccccc3)c2c1`, the GI50 was 1.52 µM and the TGI worked out at 5.54 µM.
Taken in the same sequence, the figures for `O=c1cc(N2CCOCC2)oc2c(-c3ccc4c(c3)OCCO4)csc12` were 0.629 µM and 3.75 µM.
For `CC1=C2[C@H]3OC(=O)[C@@H](C)[C@@H]3CC[C@@]2(C)C=CC1=O`, the GI50 was over 100 µM and the TGI was over 100 µM.
As to `CCCCCC/C=C\CCCCCCCCCc1cc(O)cc(OC)c1O`, the GI50 was 0.296 µM and the TGI is 0.828 µM.
`O=C(N/N=C\c1cc(Cl)ccc1O)c1ccncc1`: the GI50 is 1.83 µM and the TGI turned out to be 9.82 µM.
Taken in the same sequence, the figures for `N#CCCN1C/C(=C/c2ccccc2)C(=O)/C(=C/c2ccccc2)C1` were 1.68 µM and 3.78 µM.
As to `O=C1N=C(c2c(-c3[nH]c(=O)c4ccc(Br)cc4c3O)c(O)c3ccccc3c2O)C(=O)c2cc(Br)ccc21`, the GI50 was 0.412 µM and the TGI worked out at 1.49 µM.
Take `CCCCCCCCNC(=O)c1ccc(Cn2c(CCCC)nc3c(N)nc4ccccc4c32)cc1`: the GI50 is 1.38 µM and the TGI was 3.06 µM.
On to `COc1ccc(C(=O)C2C(C#N)C(C#N)C3C=Cc4ccccc4N32)cc1` (centres undefined), for which the GI50 is 2.31 µM and the TGI was over 100 µM.
Taken in the same sequence, the figures for `CCC(=O)Oc1cc(/C=C/C(=O)O[C@H]2C[C@H]3CN4CCc5c([nH]c6cc(OC)ccc56)[C@@H]4C[C@@H]3[C@@H](C(=O)OC)[C@@H]2OC)ccc1OC` were 4.76 µM and 33.3 µM.
Taken in the same sequence, the figures for `O=C(Nc1ccc(-n2ccc3c(NC(=O)c4ccccc4)nccc32)cc1)c1cccc(C(F)(F)F)c1` were 1.2 µM and 7.3 µM.
Take `CCCCCCCCCCCCCCNc1nc(C(=O)OCC)ncc1-c1ccc(C(F)(F)F)cc1`: the GI50 was over 100 µM and the TGI is over 100 µM.
For the molecule `O=C(O)c1cc2cc(OCc3ccccc3)ccc2[nH]1`, the GI50 is over 100 µM and the TGI was over 100 µM.
With `CS(C)(=O)=O`, the GI50 was over 100000 µM and the TGI was over 100000 µM.
For `CCCCCCC/C(=N\N=C(N)N)c1ccc(O)cc1`, the GI50 was 1.3 µM and the TGI turned out to be 2.6 µM.
For the molecule `NC(=O)[C@@H](CCC(F)(F)F)N(Cc1ccc(-c2ncon2)cc1F)S(=O)(=O)c1ccc(Cl)cc1`, the GI50 is 7.26 µM and the TGI was over 100 µM.
Taken in the same sequence, the figures for `Clc1ccc(CN2COc3c(ccc4cccnc34)C2)cc1Cl` were 0.543 µM and 2.16 µM.
On to `COC(=O)c1ccc([C@H]2c3[nH]c4ccccc4c3C[C@H](C(=O)OC)N2C(=O)CCl)cc1`, for which the GI50 was 0.472 µM and the TGI came out at 1.9 µM.
Regarding `N#Cc1c(-c2ccc(Cl)cc2)cc(-c2cc(O)ccc2O)nc1N`, the GI50 was 0.769 µM and the TGI amounted to 3.72 µM.
In the same order, the values of `c1cc2ccc3cc2cc1CNCCN1CCNCc2ccc4ccc(cc4c2)CNCCN(CCNC3)CCNCc2ccc3ccc(cc3c2)CNCC1` are 2.01 µM and 4 µM.
Taken in the same sequence, the figures for `Cn1cc(-c2ccc(-c3cn(C)c4ncccc34)[nH]2)c2cccnc21` were 1.79 µM and 5.22 µM.
Take `Nc1c(C(=O)Nc2ccccc2)sc2nc3c(cc12)C(O)CCC3` (centres undefined): the GI50 is 0.29 µM and the TGI is over 100 µM.
Take `O=c1c2sc3ccccc3c2nnn1-c1ccc(F)c(Cl)c1`: the GI50 was 12.8 µM and the TGI was 99.5 µM.
Taken in the same sequence, the figures for `Cc1ccc(S(=O)(=O)Oc2ccccc2-c2ccccc2)cc1` were 0.866 µM and 4.22 µM.

The values above are taken from PubChem BioAssay (NCI).
